Numbering of substitutions follows the chain as printed. Where a SMILES comes first, the peptide text is derived from it. Bridges are numbered along the chain shown (N, C = ends).
What was measured:
Test in all cases: Heterologous whole cell competition binding
Details in all cases: heterologous competition of 125I-sCT(8-32), whole cells, mean ± S.E.M., SEM
[1] = target: T1, hCTR F359A (Homo sapiens, UniProt P30988, F359A)
T1 construct: expressed in transfected cells
T1 sequence (P30988 25-474 F359A): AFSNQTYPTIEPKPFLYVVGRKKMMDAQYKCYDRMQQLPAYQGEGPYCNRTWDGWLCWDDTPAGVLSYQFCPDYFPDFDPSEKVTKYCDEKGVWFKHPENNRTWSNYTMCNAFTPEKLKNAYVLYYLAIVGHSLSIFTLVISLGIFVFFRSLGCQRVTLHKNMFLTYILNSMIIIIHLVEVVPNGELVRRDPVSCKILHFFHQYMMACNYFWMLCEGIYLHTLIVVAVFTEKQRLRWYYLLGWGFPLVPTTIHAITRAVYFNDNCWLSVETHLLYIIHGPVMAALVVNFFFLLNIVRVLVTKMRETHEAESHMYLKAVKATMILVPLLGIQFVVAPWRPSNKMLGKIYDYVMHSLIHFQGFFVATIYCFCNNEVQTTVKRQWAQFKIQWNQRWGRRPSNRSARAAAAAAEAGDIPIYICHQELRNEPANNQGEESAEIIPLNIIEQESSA
In short: (§1)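 Reported pKi values come from whole-cell displacement of a radiolabelled tracer, incubated overnight and quantified by gamma counting after washing out free ligand, with correction for tracer occupancy (Cheng-Prusoff).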

[2] = target: T2, hCTR V375A (Homo sapiens, UniProt P30988, V375A)
T2 construct: c-Myc (N); expressed in transfected cells
T2 sequence (P30988 25-474 V375A): T1 sequence (P30988 25-474 F359A) with A335F, V351A
In short: as §1

[3] = target: T3, hCTR H296A (Homo sapiens, UniProt P30988, H296A)
T3 construct: c-Myc (N); expressed in transfected cells
T3 sequence (P30988 25-474 H296A): T1 sequence (P30988 25-474 F359A) with H272A, A335F
In short: as §1

[4] = target: T4, hCTR G369A (Homo sapiens, UniProt P30988, G369A)
T4 construct: c-Myc (N); expressed in transfected cells
T4 sequence (P30988 25-474 G369A): T1 sequence (P30988 25-474 F359A) with A335F, G345A
In short: as §1

[5] = target: T5, hCTR Y374A (Homo sapiens, UniProt P30988, Y374A)
T5 construct: c-Myc (N); expressed in transfected cells
T5 sequence (P30988 25-474 Y374A): T1 sequence (P30988 25-474 F359A) with A335F, Y350A
In short: as §1

SMILES: CSCC[C@H](NC(=O)CNC(=O)[C@H](CO)NC(=O)[C@H](Cc1ccccc1)NC(=O)[C@H](CCCNC(=N)N)NC(=O)[C@H](Cc1c[nH]cn1)NC(=O)[C@H](Cc1ccccc1)NC(=O)[C@H](CC(N)=O)NC(=O)[C@H](CC(N)=O)NC(=O)[C@H](CC(C)C)NC(=O)[C@H](CC(N)=O)NC(=O)[C@H](CCCNC(=N)N)NC(=O)[C@H](Cc1c[nH]c2ccccc12)NC(=O)[C@H](Cc1ccc(O)cc1)NC(=O)[C@H](C)NC(=O)[C@H](CO)NC(=O)[C@H](CC(C)C)NC(=O)[C@@H](NC(=O)[C@@H]1CSSC[C@H](N)C(=O)N[C@@H](CO)C(=O)N[C@@H](CC(N)=O)C(=O)N[C@@H](CC(C)C)C(=O)N[C@@H](CO)C(=O)N[C@@H]([C@@H](C)O)C(=O)N1)C(C)C)C(=O)NCC(=O)N[C@@H](Cc1ccccc1)C(=O)NCC(=O)N1CCC[C@H]1C(=O)N[C@@H](CCC(=O)O)C(=O)N[C@H](C(=O)N1CCC[C@H]1C(N)=O)[C@@H](C)O [pCT] (H-CSNLSTCVLSAYWRNLNNFHRFSGMGFGPETP-NH2; disulfide 1-7)
- Ki [1]: 74.1 nM
- Ki [2]: 5.13 nM
- Ki [3]: 8.51 nM
- Ki [4]: 7.94 nM
- Ki [5]: 5.89 nM

Reference: paper PMC5908784, “Extracellular loops 2 and 3 of the calcitonin receptor selectively modify agonist binding and efficacy” (Biochemical Pharmacology, 2018)
